Test system: Onchocerca gutturosa adult male worms
Assay: Onchocerciasis in vitro screening model Onchocerca gutturosa (worm motility score and MTT/formazan colorimetry)
Details: Onchocerca gutturosa, read-out: O. gutt Act class

Row | Structure (SMILES) | IC50 [nM]
1 | CCOc1ccc(-c2csc(Nc3cc(C)ccn3)n2)nc1 [Example 91, 4-(5-ethoxypyridin-2-yl)-N-(4-methylpyridin-2-yl)thiazol-2-amine] | < 200
2 | Cc1cnc(Nc2nc(-c3ccccn3)cs2)cc1C(F)(F)F [Example 129, N-(5-methyl-4-(trifluoro-methyl)pyridin-2-yl)-4-(pyridin-2-yl)thiazol-2-amine] | < 200
3 | Cc1cccnc1-c1csc(Nc2cc(-c3ccccc3)ccn2)n1 [Example 100, 4-(3-methylpyridin-2-yl)-N-(4-phenylpyridin-2-yl)thiazol-2-amine] | < 200
4 | CNC(=O)c1ccc(-c2ccnc(Nc3nc(-c4ccccn4)cs3)c2)cc1 [Example 171, N-methyl-4-(2-(4-(pyridin-2-yl)thiazol-2-ylamino)pyridin-4-yl)benzamide] | < 200
5 | CCCCc1ccnc(Nc2nc(-c3ccccn3)cs2)c1 [Example 167, N-(4-butylpyridin-2-yl)-4-(pyridin-2-yl)thiazol-2-amine] | < 200
6 | Cc1ccnc(-c2csc(Nc3ncccc3C)n2)c1 [Example 222, N-(3-methylpyridin-2-yl)-4-(4-methylpyridin-2-yl)thiazol-2-amine] | 500 to 5000
7 | FC(F)(F)c1ccc(Nc2nc(-c3ccccn3)cs2)nc1 [Example 217, 4-(pyridin-2-yl)-N-(5-(trifluoromethyl)pyridin-2-yl)thiazol-2-amine] | 500 to 5000
8 | CCc1sc(Nc2cc(C)ccn2)nc1-c1ccccn1 [Example 184, 5-ethyl-N-(4-methylpyridin-2-yl)-4-(pyridin-2-yl)thiazol-2-amine] | < 200
9 | COc1cccnc1-c1csc(Nc2cc(C)ccn2)n1 [Example 7] | 500 to 5000
10 | Cc1ccnc(-c2csc(Nc3ncccc3-c3ccccc3)n2)c1 [Example 99, 4-(4-methylpyridin-2-yl)-N-(3-phenylpyridin-2-yl)thiazol-2-amine] | 500 to 5000
11 | c1ccc(-c2csc(Nc3cc(-c4cnccn4)ccn3)n2)nc1 [Example 173, N-(4-(pyrazin-2-yl)pyridin-2-yl)-4-(pyridin-2-yl)thiazol-2-amine] | < 200
12 | COc1ccnc(-c2csc(Nc3ncc(C(F)(F)F)cc3N(C)C(C)=O)n2)c1 [Example 96, N-(2-(4-(4-methoxypyridin-2-yl)thiazol-2-ylamino)-5-(trifluoromethyl)pyridin-3-yl)-N-methylacetamide] | 200 to 500
13 | Cc1cccnc1Nc1nc(-c2ccc(Cl)cn2)cs1 [Example 94, 4-(5-chloropyridin-2-yl)-N-(3-methylpyridin-2-yl)thiazol-2-amine] | < 200
14 | Cc1ccnc(Nc2nc(-c3ccc(Cl)cn3)cs2)c1 [Example 89, 4-(5-chloropyridin-2-yl)-N-(4-methylpyridin-2-yl)thiazol-2-amine] | 200 to 500
15 | CCOc1ccc(Nc2nc(-c3ccc(OCC)cn3)cs2)nc1 [Example 87, N,4-bis(5-ethoxypyridin-2-yl)thiazol-2-amine] | < 200
16 | CCc1cnc(Nc2nc(-c3ccccn3)cs2)cc1C(F)(F)F [Example 130, N-(5-ethyl-4-(trifluoro-methyl)pyridin-2-yl)-4-(pyridin-2-yl)thiazol-2-amine] | < 200
17 | Cc1ccnc(Nc2nc(-c3cc(OC4COC4)ccn3)cs2)c1 [Example 102, N-(4-methylpyridin-2-yl)-4-(4-(oxetan-3-yloxy)pyridin-2-yl)thiazol-2-amine] | < 200
18 | CC(=O)N(C)c1cc(C(F)(F)F)cnc1Nc1nc(-c2cc(OC3COC3)ccn2)cs1 [Example 73, N-methyl-N-(2-(4-(4-(oxetan-3-yloxy)pyridin-2-yl)thiazol-2-ylamino)-5-(trifluoromethyl)pyridin-3-yl)acetamide] | 200 to 500
19 | Cc1cnc(Nc2nc(-c3ccccn3)cs2)c(C)c1 [Example 124, N-(3,5-dimethyl-pyridin-2-yl)-4-(pyridin-2-yl)thiazol-2-amine] | < 200
20 | COc1ccc(-c2csc(Nc3cc(C)ccn3)n2)nc1 [Example 225, 4-(5-methoxypyridin-2-yl)-N-(4-methylpyridin-2-yl)thiazol-2-amine] | < 200
21 | Cc1ccnc(Nc2nc(-c3ccccn3)c(COCC3CCC3)s2)c1 [Example 182, 5-((cyclobutyl-methoxy)methyl)-N-(4-methylpyridin-2-yl)-4-(pyridin-2-yl)thiazol-2-amine] | 200 to 500

The remaining lines, values ahead:

Row | IC50 [nM] | Structure (SMILES)
22 | 200 to 500 | O=C(c1ccnc(Nc2nc(-c3ccccn3)cs2)c1)N1CCOCC1 [Example 143, morpholino (2-(4-(pyridin-2-yl)thiazol-2-ylamino)pyridin-4-yl)methanone]
23 | 500 to 5000 | c1ccc(-c2ccnc(Nc3cc(-c4ccccn4)ns3)c2)cc1 [Example 119, N-(4-phenylpyridin-2-yl)-3-(pyridin-2-yl)isothiazol-5-amine]
24 | < 200 | c1ccc(-c2ccnc(Nc3cc(-c4ccccn4)n[nH]3)c2)cc1 [Example 238, 4-phenyl-N-(3-(pyridin-2-yl)-1H-pyrazol-5-yl)pyridin-2-amine]
25 | 200 to 500 | C[C@@H](CO)NC(=O)c1ccnc(Nc2nc(-c3ccccn3)cs2)c1 [Example 148, (S)-N-(1-hydroxy-propan-2-yl)-2-(4-(pyridin-2-yl)thiazol-2-ylamino) isonicotinamide]
26 | < 200 | Cc1cccnc1Nc1nc(-c2ccccn2)cs1 [Example 215, N-(3-methylpyridin-2-yl)-4-(pyridin-2-yl)thiazol-2-amine]
27 | 200 to 500 | Fc1ccc(-c2csc(Nc3cc(C(F)(F)F)c(Br)cn3)n2)nc1 [Example 109, N-(5-bromo-4-(trifluoromethyl)pyridin-2-yl)-4-(5-fluoropyridin-2-yl)thiazol-2-amine]
28 | < 200 | O=C(c1ccnc(Nc2nc(-c3ccccn3)cs2)c1)N1CCC(F)(F)CC1 [Example 145, (4,4-difluoro-piperidin-1-yl)(2-(4-(pyridin-2-yl)thiazol-2-ylamino)pyridin-4-yl)methanone]
29 | 200 to 500 | CNC(=O)C1CCCN(c2ccc(Nc3nc(-c4ccccn4)cs3)nc2)C1 (stereo not shown) [Example 159, N-methyl-1-(6-(4-(pyridin-2-yl)thiazol-2-ylamino)pyridin-3-yl)piperidine-3-carboxamide]
30 | 500 to 5000 | Cc1ccnc(Nc2nc(-c3ncccc3C)c(-c3ccccc3)s2)c1 [Example 110, 4-(3-methylpyridin-2-yl)-N-(4-methylpyridin-2-yl)-5-phenylthiazol-2-amine]
31 | < 200 | C[C@@H]1CN(C(=O)c2sc(Nc3cc(C(F)(F)F)ccn3)nc2-c2ccccn2)C[C@H](C)O1 [Example 187, ((2S,6R)-2,6-dimethyl-morpholino) (4-(pyridin-2-yl)-2-(4-(trifluoromethyl)pyridin-2-ylamino)thiazol-5-yl)methanone]
32 | < 200 | CC(C)NC(=O)c1ccnc(Nc2nc(-c3ccccn3)cs2)c1 [Example 146, N-isopropyl-2-(4-(pyridin-2-yl)thiazol-2-ylamino) isonicotinamide]
33 | < 200 | FC(F)(F)c1ccnc(Nc2nc(-c3ccccn3)cs2)c1 [Example 120, 4-(pyridin-2-yl)-N-(4-(trifluoromethyl)pyridin-2-yl)thiazol-2-amine]
34 | < 200 | FC(F)(F)c1ccnc(Nc2nc(-c3ccccn3)c(CN3CCCCC3)s2)c1 [Example 164, 5-(piperidin-1-ylmethyl)-4-(pyridin-2-yl)-N-(4-(trifluoromethyl)pyridin-2-yl)thiazol-2-amine]
35 | < 200 | CN(C)C(=O)c1sc(Nc2cc(C(F)(F)F)ccn2)nc1-c1ccccn1 [Example 209, N,N-dimethyl-4-(pyridin-2-yl)-2-(4-(trifluoromethyl)pyridin-2-ylamino) thiazole-5-carboxamide]
36 | < 200 | O=C(c1sc(Nc2cc(C(F)(F)F)ccn2)nc1-c1ccccn1)N1CCCC1 [Example 207, (4-(pyridin-2-yl)-2-(4-(trifluoromethyl)pyridin-2-ylamino)thiazol-5-yl)(pyrrolidin-1-yl)methanone]
37 | < 200 | NC(=O)c1ccnc(Nc2nc(-c3ccccn3)cs2)c1 [Example 139, 2-(4-(pyridin-2-yl)thiazol-2-ylamino) iso-nicotinamide]
38 | 500 to 5000 | Cc1ccnc(Nc2csc(-c3ncccc3C)n2)c1 [Example 115, 2-(3-methylpyridin-2-yl)-N-(4-methylpyridin-2-yl)thiazol-4-amine]
39 | 500 to 5000 | c1ccc(-c2csc(Nc3ccc4[nH]ccc4n3)n2)nc1 [Example 135, 4-(pyridin-2-yl)-N-(1H-pyrrolo [3,2-b]pyridin-5-yl)thiazol-2-amine]
40 | 200 to 500 | O=C(NCCO)c1ccnc(Nc2nc(-c3ccccn3)cs2)c1 [Example 154, N-(2-hydroxyethyl)-2-(4-(pyridin-2-yl)thiazol-2-ylamino) isonicotinamide]
41 | 500 to 5000 | c1ccc(-c2csc(Nc3cc4cc[nH]c4cn3)n2)nc1 [Example 137, 4-(pyridin-2-yl)-N-(1H-pyrrolo [2,3-c]pyridin-5-yl)thiazol-2-amine]
42 | < 200 | FC(F)(F)c1ccnc(Nc2nc(-c3ccc(OC4CCOCC4)cn3)cs2)c1 [Example 104, 4-(5-(tetrahydro-2H-pyran-4-yloxy)pyridin-2-yl)-N-(4-(trifluoromethyl)pyridin-2-yl)thiazol-2-amine]
43 | < 200 | OCc1sc(Nc2cc(C(F)(F)F)ccn2)nc1-c1ccccn1 [Example 165, (4-(pyridin-2-yl)-2-(4-(trifluoromethyl)pyridin-2-ylamino)thiazol-5-yl)methanol]
44 | 500 to 5000 | c1ccc(-c2csc(Nc3ncccn3)n2)nc1 [Example 213, 4-(pyridin-2-yl)-N-(pyrimidin-2-yl)thiazol-2-amine]
45 | 200 to 500 | O=C(NCC(F)(F)F)c1ccnc(Nc2nc(-c3ccccn3)c(CO)s2)c1 [Example 211, 2-(5-(hydroxy-methyl)-4-(pyridin-2-yl)thiazol-2-ylamino)-N-(2,2,2-trifluoroethyl) isonicotinamide]
46 | < 200 | CC(=O)N(C)c1cc(C(F)(F)F)cnc1Nc1nc(-c2cc3n(n2)CCC3)cs1 [Example 108, N-(2-(4-(5,6-dihydro-4H-pyrrolo[1,2-b]pyrazol-2-yl)thiazol-2-ylamino)-5-(trifluoromethyl)pyridin-3-yl)-N-methylacetamide]
